Experimental findings from patent US20130310256A1, “HERBICIDAL COMPOSITIONS COMPRISING 4-AMINO-3-CHLORO-5-FLUORO-6-(4-CHLORO-2-FLUORO-3-METHOXYPHENYL) PYRIDINE-2-CARBOXYLIC ACID OR A DERIVATIVE THEREOF AND VLCFA AND LIPID SYNTHESIS INHIBITING HERBICIDES” (DOW AGROSCIENCES LLC, priority 2008, published 2013) are described below.

The subject of assay [1] is DIGSA. As to the kind of experiment: Example I: postemergence foliar-applied weed control, greenhouse. Particulars: 20 DAA. It is filed as in vivo, Digitaria sanguinalis (L.) Scop. (large crabgrass). The source says: (§1) Seeds or nutlets of the desired test plant species were planted in a soil matrix prepared by mixing a loam or sandy loam soil (e.g., 28.6 percent silt, 18.8 percent clay, and 52.6 percent sand, with a pH of about 5.8 and an organic matter content of about 1.8 percent) and calcareous grit in an 80 to 20 ratio. The soil matrix was contained in plastic pots with a volume of 1 quart and a surface area of 83.6 square centimeters (cm^2). When required to ensure good germination and healthy plants, a fungicide treatment and/or other chemical or physical treatment was applied. The plants were grown for 8-22 days in a greenhouse with an approximate 14 hr photoperiod which was maintained at about 29° C. during the day and 26° C. during the night. Nutrients (Peters Excel® 15-5-15 5-Ca 2-Mg and iron chelate) were applied in the irrigation solution as needed and water was added on a regular basis. Supplemental lighting was provided with overhead metal halide 1000-Watt lamps as necessary. The plants were employed for testing when they reached the first through fourth true leaf stage.
(§2) Treatments consisted of the acid or esters of 4-amino-3-chloro-5-fluoro-6-(4-chloro-2-fluoro-3-methoxy-phenyl)pyridine-2-carboxylic acid (Compound A), each formulated as an SC (suspension concentrate), and various herbicidal components alone and in combination. Forms of compound A were applied on an acid equivalent basis.
(§3) Other herbicidal components were applied on an active ingredient basis and included very long chain fatty acid (VLCFA) synthesis-inhibiting and fatty acid/lipid synthesis-inhibiting herbicides acetochlor (technical grade material), acetochlor+dichlormid formulated as Topnotch®, pretilachlor (technical grade material), butachlor formulated as Butachlor EC, fentrazamide formulated as Fentrazamide EC, thiobencarb formulated as Bolero® 8EC, cafenstrole formulated as Himeadow® WP or Lapost® Flowable, benfuresate formulated as Full Shot®, dimethenamid-P formulated as Outlook®, indanofan (technical grade material), flufenacet formulated as Define® DF, mefenacet (technical grade material), S-metolachlor formulated as Dual® II Magnum, pethoxamid formulated as Successor® 600, and pyroxasulfone (technical grade material).
(§4) Treatment requirements were calculated based upon the rates being tested, the concentration of active ingredient or acid equivalent in the formulation, and a 12 mL application volume at a rate of 187 L/ha.
(§5) For treatments comprised of formulated compounds, measured amounts of compounds were placed individually in 25 mL glass vials and diluted in a volume of 1.25% (v/v) Agri-Dex® crop oil concentrated to obtain 12× stock solutions. […] Application solutions were prepared by adding an appropriate amount of each stock solution (e.g., 1 mL) and diluted to the appropriate final concentrations with the addition of 10 mL of an aqueous mixture of 1.25% (v/v) crop oil concentrate so that the final spray solutions contained 1.25+/−0.05% (v/v) crop oil concentrate.
(§6) For treatments comprised of technical compounds, weighed amounts can be placed individually in 25 mL glass vials and dissolved in a volume of 97:3 v/v acetone/DMSO to obtain 12× stock solutions. […] Application solutions can be prepared by adding an appropriate amount of each stock solution (e.g., 1 mL) and diluted to the appropriate final concentrations with the addition of 10 mL of an aqueous mixture of 1.5% (v/v) crop oil concentrate so that the final spray solutions contain 1.25% (v/v) crop oil concentrate. When technical materials are used, the concentrated stock solutions can be added to the spray solutions so that the final acetone and DMSO concentrations of the application solutions are […], respectively. […]

Assay [2] concerns ECHCG. The description is as above. It counts as in vivo, Echinochloa crus-galli (L.) Beauv. (barnyardgrass). The note with it: 20 DAA.
Text: as §1, §2, §3, §4, §5, §6

For assay [3], the system named is CYPRO. As to the kind of experiment: Example II: in-water applied weed control, transplanted paddy rice, greenhouse. Particulars: for Visual Weed Control CYPRO Obs: 19 DAA. It is filed as in vivo, Cyperus rotundus L. (purple nutsedge). As for the experimental part:
(§7) Weed seeds or nutlets of the desired test plant species were planted in puddled soil (mud) prepared by mixing a shredded, non-sterilized mineral soil (50.5 percent silt, 25.5 percent clay, and 24 percent sand, with a pH of about 7.6 and an organic matter content of about 2.9 percent) and water at a 1:1 volumetric ratio. The prepared mud was dispensed in 365 mL aliquots into 16-ounce (oz.) non-perforated plastic pots with a surface area of 86.59 square centimeters (cm^2) leaving a headspace of 3 centimeters (cm) in each pot. Mud was allowed to dry overnight prior to planting or transplanting. Rice seeds were planted in Sun Gro MetroMix® 306 planting mixture, which typically has a pH of 6.0 to 6.8 and an organic matter content of about 30 percent, in plastic plug trays. Seedlings at the second or third leaf stage of growth were transplanted into 840 mL of mud contained in 32-oz. non-perforated plastic pots with a surface area of 86.59 cm^2 4 days prior to herbicide application. The paddy was created by filling the headspace of the pots with 2.5 to 3 cm of water. When required to ensure good germination and healthy plants, a fungicide treatment and/or other chemical or physical treatment was applied. The plants were grown for 4-22 days in a greenhouse with an approximate 14 hr photoperiod which was maintained at about 29′C during the day and 26° C. during the night. Nutrients were added as Osmocote® (19:6:12, N:P:K+ minor nutrients) at 2 g per 16-oz. pot and 4 g per 32-oz. pot. Water was added on a regular basis to maintain the paddy flood, and supplemental lighting was provided with overhead metal halide 1000-Watt lamps as necessary. The plants were employed for testing when they reached the first through fourth true leaf stage.
(§8) Treatments consisted of the acid or esters of 4-amino-3-chloro-5-fluoro-6-(4-chloro-2-fluoro-3-methoxy-phenyl)pyridine-2-carboxylic acid (compound A) each formulated as an SC (suspension concentrate) and various herbicidal components alone and in combination. Forms of compound A were applied on an acid equivalent basis.
(§9) The herbicidal components were applied on an active ingredient basis and included very long chain fatty acid (VLCFA) synthesis-inhibiting and fatty acid/lipid synthesis-inhibiting herbicides acetochlor (technical grade material), acetochlor+dichlormid formulateded as Topnotch®, pretilachlor (technical grade material), butachlor formulated as Butachlor EC, fentrazamide formulated as Fentrazamide EC, thiobencarb formulated as Bolero® 8EC, cafenstrole formulated as Himeadow® WP or Lapost® Flowable, benfuresate formulated as Full Shot®, anilofos (technical grade material), mefenacet (technical grade material), molinate (technical grade material), and thenylchlor (technical grade material).
(§10) Treatment requirements for each compound or herbicidal component were calculated based upon the rates being tested, the concentration of active ingredient or acid equivalent in the formulation, an application volume of 2 mL per component per pot, and an application area of 86.59 cm^2 per pot.
(§11) For formulated compounds, a measured amount was placed in an individual 100 or 200 mL glass vial and was dissolved in a volume of 1.25% (v/v) Agri-Dex® crop oil concentrate to obtain application solutions.
(§12) For technical grade compounds, a weighed amount was placed in an individual 100 to 200 mL glass vial and was dissolved in a volume of acetone to obtain concentrated stock solutions. […] The concentrated stock solutions obtained were diluted with an equivalent volume of an aqueous mixture containing 2.5% (v/v) crop oil concentrate so that the final application solutions contained 1.25% (v/v) crop oil concentrate.
(§13) Applications were made by injecting with a pipetter appropriate amounts of the application solutions, individually and sequentially, into the aqueous layer of the paddy. Control plants were treated in the same manner with the solvent blank. […]

The test system of assay [4] is ECHCG. The assay is described as above. It counts as in vivo, Echinochloa crus-galli (L.) Beauv. (barnyardgrass). The note with it: 100 gai/ha. The protocol:
as §7, §8, §9, §10, §11, §12, §13

The test system of assay [5] is ECHOR. Described as above. Particulars: for Visual Weed Control ECHOR Obs: 19 DAA. It is filed as in vivo, Echinochloa oryzoides (Ard.) Fritsch (early watergrass). As for the experimental part:
as §7, §8, §9, §10, §11, §12, §13

The test system of assay [6] is FIMMI. The description is as above. It counts as in vivo, Fimbristylis miliacea (L.) Vahl (globe fringerush). The note with it: for Visual Weed Control FIMMI Obs: 19 DAA. As for the experimental part:
as §7, §8, §9, §10, §11, §12, §13

For assay [7], the system named is BRAPP. Briefly: Example I: postemergence foliar-applied weed control, direct seeded rice weeds, greenhouse. It is filed as in vivo. Particulars: 20 DAA.
Text: as §1, §2, §3, §4, §5, §6

Assay [8] has as its system LEFCH. As to the kind of experiment: Example I: postemergence foliar-applied weed control, greenhouse. It counts as in vivo, Leptochloa chinensis (L.) Nees (Chinese sprangletop). Particulars: 20 DAA.
Text: as §1, §2, §3, §4, §5, §6

Assay [9] deals with ECHCO. The description is as above. It counts as in vivo, Echinochloa colona (L.) Link (junglerice). The note with it: 20 DAA.
Text: as §1, §2, §3, §4, §5, §6

In the case of `CCOCN(C(=O)CCl)c1c(C)cccc1CC` [Acetochlor, 2-chloro-N-(ethoxymethyl)-N-(2-ethyl-6-methylphenyl)acetamide], the “Visual Weed Control Obs” value in assay [1] (100 gai/ha) amounted to 20%; in assay [1] (200 gai/ha) it was 20%; in [2] (50 gai/ha), 0%; in [2] (100 gai/ha) it was 10%; in assay [7] (100 gai/ha), 20%; in assay [7] (200 gai/ha), 30%. Also, the results for the “Visual Weed Control (%) - 20 DAA CYPRO Obs” value in [3] (100 gai/ha) and in assay [3] (200 gai/ha) were 20% and 75%, respectively. In addition, the “Visual Weed Control (%) - 22 DAA ECHCG Obs” value in [4] was determined as 65%. Further, in assay [5] (100 gai/ha), the “Visual Weed Control (%) - 20 DAA ECHOR Obs” value is 80%. Further, the “Visual Weed Control (%) - 20 DAA FIMMI Obs” value is on record as 80% in assay [6] (100 gai/ha) and 20% in assay [6] (200 gai/ha).

Take `CCN(C(=O)n1nnn(-c2ccccc2Cl)c1=O)C1CCCCC1` [Fentrazamide, 4-(2-chlorophenyl)-N-cyclohexyl-N-ethyl-4,5-dihydro-5-oxo-1H-tetrazole-1-carboxamide]: the “Visual Weed Control Obs” value in assay [1] (33.75 gai/ha) was found to be 0%; in assay [1] (67.5 gai/ha), 30%; in [2] (16.88 gai/ha), 0%; in assay [2] (33.75 gai/ha), 0%; in assay [2] (67.5 gai/ha), 20%; in [2] (75 gai/ha) it was 0%. Moreover, the “Visual Weed Control Obs” value worked out at 5% in assay [2] (150 gai/ha); 13% in assay [2] (300 gai/ha); 0% in assay [8] (33.75 gai/ha); 0% in assay [8] (67.5 gai/ha); 0% in assay [9] (16.88 gai/ha); 15% in [9] (33.75 gai/ha). The “Visual Weed Control Obs” value was found to be 10% in assay [9] (67.5 gai/ha), 0% in assay [7] (16.88 gai/ha), 0% in assay [7] (33.75 gai/ha) and 55% in assay [7] (67.5 gai/ha). Moreover, the “Visual Weed Control (%) - 21 DAA ECHOR Obs” value in assay [5] (50 gai/ha) amounted to 50%.

Turning to “S-[2-[(4-chlorophenyl)(1-methylethyl)amino]-2-oxoethyl]O,O-dimethyl phosphorodithioate [Anilofos]”, the “Visual Weed Control CYPRO Obs” value in [3] (100 gai/ha), in assay [3] (200 gai/ha) and in [3] (400 gai/ha) was 0% each time. In addition, in assay [4] (19 DAA), the “Visual Weed Control ECHCG Obs” value came to 20%. The “Visual Weed Control ECHOR Obs” value in assay [5] (100 gai/ha) stood at 40%; in assay [5] (200 gai/ha) it was 80%. The “Visual Weed Control FIMMI Obs” value came to 0% in [6] (100 gai/ha), 0% in assay [6] (200 gai/ha) and 10% in [6] (400 gai/ha).
